Test results taken from ChEMBL document CHEMBL5705893, “Targeting the mitotic checkpoint for cancer therapy with NMS-P715, an inhibitor of MPS1 kinase” (Cancer Res, 2010).
Active and inactive are the calls of the source. The rule behind the calls is not given here.

How the values were obtained:
U2OS [1] = assay: Inhibition of colony formation in human U2OS cells assessed as decrease in colony number incubated for 22 hrs followed by compound washout and measured after 8 days by crystal violet staining based assay; type: functional, cell-based
MCF7 = assay: Antiproliferative activity against human MCF7 cells assessed as inhibition of cell growth incubated for 72 hrs by celltiter-glo assay; type: functional, cell-based; settings: MCF7, 72 h
NCI-H526 = assay: Antiproliferative activity against human NCI-H526 cells assessed as inhibition of cell growth incubated for 72 hrs by celltiter-glo assay; type: functional, cell-based; settings: NCI-H526, 72 h
HeLa [2] = assay: Effect on BUBR1 level in human nocodazole-arrested HeLa cells at 1 micromol/L in presence of MG132; type: functional, cell-based; settings: dose 1.0 µmol/L
[3] = Oral bioavailability in Athymic nu-nu mouse at 100 mg/kg measured upto 24 hrs by LC-MS/MS analysis; type: ADME, organism-based; settings: in vivo
[4] = Antiproliferative activity against human GM03798 cells assessed as inhibition of cell growth incubated for 72 hrs by celltiter-glo assay; type: functional, cell-based; settings: GM03798, 72 h
HeLa [5] = assay: Antiproliferative activity against human HeLa cells assessed as inhibition of cell growth incubated for 72 hrs by celltiter-glo assay; type: functional, cell-based
U2OS [6] = assay: Induction of mitotic arrest in human U2OS cells expressing YFP-alpha-tubulin assessed as mitotic index at 1 micromol/L in presence of MG132 by time-lapse microscopic analysis; type: functional, cell-based; settings: dose 1.0 µmol/L
SW948 = assay: Antiproliferative activity against human SW948 cells assessed as inhibition of cell growth incubated for 72 hrs by celltiter-glo assay; type: functional, cell-based; settings: SW948, 72 h
U2OS [7] = assay: Induction of mitotic arrest in human U2OS cells expressing YFP alpha-tubulin assessed as chromosome misalignment in anaphase incubated for 1 hr by DAPI staining based confocal microscopic analysis; type: functional, cell-based
SK-LU-1 = assay: Antiproliferative activity against human SK-LU-1 cells assessed as inhibition of cell growth incubated for 72 hrs by celltiter-glo assay; type: functional, cell-based; settings: SK-LU-1, 72 h
HCT-116 = assay: Cell cycle arrest in human HCT-116 cells assessed as accumulation of cells at G1 phase at 0.2 to 1 micromol/L incubated for 48 hrs by FACS/PI staining based flow cytometric analysis; type: functional; settings: dose 0.2-1 µmol/L
[8] = target: Mitotic checkpoint serine/threonine-protein kinase BUB1 (Homo sapiens, UniProt O43683); assay: Inhibition of recombinant BUB1 (unknown origin)
SU-DHL10 = assay: Antiproliferative activity against human SU-DHL-10 cells assessed as inhibition of cell growth incubated for 72 hrs by celltiter-glo assay; type: functional, cell-based; settings: SU-DHL10, 72 h
[9] = target: Inhibitor of nuclear factor kappa-B kinase subunit beta (Homo sapiens, UniProt O14920); assay: Inhibition of recombinant IKK2 (unknown origin)
[10] = Oral bioavailability in Athymic nu-nu mouse at 10 mg/kg measured upto 24 hrs by LC-MS/MS analysis; type: ADME, organism-based; settings: in vivo
[11] = target: Eukaryotic elongation factor 2 kinase (Homo sapiens, UniProt O00418); assay: Inhibition of recombinant EEF2K (unknown origin)
L-363 = assay: Antiproliferative activity against human L-363 cells assessed as inhibition of cell growth incubated for 72 hrs by celltiter-glo assay; type: functional, cell-based; settings: L-363, 72 h
Focal adhesion kinase 1 = Focal adhesion kinase 1 (Homo sapiens, UniProt Q05397); assay: Inhibition of recombinant FAK (unknown origin)
A2780 = assay: Cell cycle arrest in human A2780 cells assessed as accumulation of cells at sub-G1 phase at 0.2 to 1 micromol/L incubated for 72 hrs by FACS/PI staining based flow cytometric analysis; type: functional; settings: dose 0.2-1 µmol/L
HCC 2998 = assay: Antiproliferative activity against human HCC 2998 cells assessed as inhibition of cell growth incubated for 72 hrs by celltiter-glo assay; type: functional, cell-based; settings: HCC 2998, 72 h
NCI-H2228 = assay: Antiproliferative activity against human NCI-H2228 cells assessed as inhibition of cell growth incubated for 72 hrs by celltiter-glo assay; type: functional, cell-based; settings: NCI-H2228, 72 h
NCI-H322M = assay: Antiproliferative activity against human NCI-H322M cells assessed as inhibition of cell growth incubated for 72 hrs by celltiter-glo assay; type: functional, cell-based
[12] = target: Tyrosine-protein kinase Lyn (Homo sapiens, UniProt P07948); assay: Inhibition of recombinant LYN (unknown origin)
UACC-257 = assay: Antiproliferative activity against human UACC-257 cells assessed as inhibition of cell growth incubated for 72 hrs by celltiter-glo assay; type: functional, cell-based; settings: UACC-257, 72 h
[13] = Inhibition of recombinant CDK2/CYCA (unknown origin); set-up: species or system Homo sapiens
NCI-H146 = assay: Antiproliferative activity against human NCI-H146 cells assessed as inhibition of cell growth incubated for 72 hrs by celltiter-glo assay; type: functional, cell-based; settings: NCI-H146, 72 h
U2OS [14] = assay: Induction of mitotic arrest in human U2OS cells expressing YFP-alpha-tubulin assessed as effect on bipolar spindle formation at 1 micromol/L by time-lapse microscopic analysis; type: functional, cell-based; settings: dose 1.0 µmol/L
SW-403 = assay: Antiproliferative activity against human SW403 cells assessed as inhibition of cell growth incubated for 72 hrs by celltiter-glo assay; type: functional, cell-based; settings: SW-403, 72 h
[15] = Cmax in Athymic nu-nu mouse at 10 mg/kg, iv measured upto 24 hrs by LC-MS/MS analysis; type: ADME, organism-based; settings: in vivo
[16] = target: Serine/threonine-protein kinase Nek6 (Homo sapiens, UniProt Q9HC98); assay: Inhibition of recombinant NEK6 (unknown origin)
[17] = AUC in Athymic nu-nu mouse at 10 mg/kg, po measured upto 24 hrs by LC-MS/MS analysis; type: ADME, organism-based; settings: in vivo
[18] = Antiproliferative activity against human PL21 cells assessed as inhibition of cell growth incubated for 72 hrs by celltiter-glo assay; type: functional, cell-based; settings: PL-21, 72 h
[19] = Antiproliferative activity against human CL-11 cells assessed as inhibition of cell growth incubated for 72 hrs by celltiter-glo assay; type: functional, cell-based; settings: CL-11, 72 h
[20] = Antiproliferative activity against human NPA cells assessed as inhibition of cell growth incubated for 72 hrs by celltiter-glo assay; type: functional, cell-based
TF-1 = assay: Antiproliferative activity against human TF-1 cells assessed as inhibition of cell growth incubated for 72 hrs by celltiter-glo assay; type: functional, cell-based; settings: TF-1, 72 h
SF-539 = assay: Antiproliferative activity against human SF-539 cells assessed as inhibition of cell growth incubated for 72 hrs by celltiter-glo assay; type: functional, cell-based; settings: SF-539, 72 h
HeLa [21] = assay: Induction of mitotic arrest in human nocodazole-arrested HeLa cells assessed as delocalization of BUB1 at 1 micromol/L in presence of MG132; type: functional, cell-based; settings: dose 1.0 µmol/L
[22] = target: Serine/threonine-protein kinase PLK3 (Homo sapiens, UniProt Q9H4B4); assay: Inhibition of recombinant PLK3 (unknown origin)
[23] = target: Maternal embryonic leucine zipper kinase (Homo sapiens, UniProt Q14680); assay: Inhibition of recombinant MELK (unknown origin)
[24] = Clearance in Athymic nu-nu mouse at 10 mg/kg, iv measured upto 24 hrs by LC-MS/MS analysis; type: ADME, organism-based; settings: in vivo
HCC78 = assay: Antiproliferative activity against human HCC78 cells assessed as inhibition of cell growth incubated for 72 hrs by celltiter-glo assay; type: functional, cell-based; settings: HCC78, 72 h

Chain of Serine/threonine-protein kinase Nek6 (Q9HC98 whole entry): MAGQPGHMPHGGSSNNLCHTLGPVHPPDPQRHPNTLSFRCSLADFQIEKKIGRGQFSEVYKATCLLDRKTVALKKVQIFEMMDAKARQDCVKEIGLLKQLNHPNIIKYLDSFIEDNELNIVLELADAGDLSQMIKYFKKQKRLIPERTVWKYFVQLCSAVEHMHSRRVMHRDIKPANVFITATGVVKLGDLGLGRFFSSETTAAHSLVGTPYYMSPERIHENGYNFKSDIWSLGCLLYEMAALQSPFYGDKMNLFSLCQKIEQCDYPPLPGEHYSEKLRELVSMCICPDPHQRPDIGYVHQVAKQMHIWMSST
Chain of Focal adhesion kinase 1 (Q05397 whole entry): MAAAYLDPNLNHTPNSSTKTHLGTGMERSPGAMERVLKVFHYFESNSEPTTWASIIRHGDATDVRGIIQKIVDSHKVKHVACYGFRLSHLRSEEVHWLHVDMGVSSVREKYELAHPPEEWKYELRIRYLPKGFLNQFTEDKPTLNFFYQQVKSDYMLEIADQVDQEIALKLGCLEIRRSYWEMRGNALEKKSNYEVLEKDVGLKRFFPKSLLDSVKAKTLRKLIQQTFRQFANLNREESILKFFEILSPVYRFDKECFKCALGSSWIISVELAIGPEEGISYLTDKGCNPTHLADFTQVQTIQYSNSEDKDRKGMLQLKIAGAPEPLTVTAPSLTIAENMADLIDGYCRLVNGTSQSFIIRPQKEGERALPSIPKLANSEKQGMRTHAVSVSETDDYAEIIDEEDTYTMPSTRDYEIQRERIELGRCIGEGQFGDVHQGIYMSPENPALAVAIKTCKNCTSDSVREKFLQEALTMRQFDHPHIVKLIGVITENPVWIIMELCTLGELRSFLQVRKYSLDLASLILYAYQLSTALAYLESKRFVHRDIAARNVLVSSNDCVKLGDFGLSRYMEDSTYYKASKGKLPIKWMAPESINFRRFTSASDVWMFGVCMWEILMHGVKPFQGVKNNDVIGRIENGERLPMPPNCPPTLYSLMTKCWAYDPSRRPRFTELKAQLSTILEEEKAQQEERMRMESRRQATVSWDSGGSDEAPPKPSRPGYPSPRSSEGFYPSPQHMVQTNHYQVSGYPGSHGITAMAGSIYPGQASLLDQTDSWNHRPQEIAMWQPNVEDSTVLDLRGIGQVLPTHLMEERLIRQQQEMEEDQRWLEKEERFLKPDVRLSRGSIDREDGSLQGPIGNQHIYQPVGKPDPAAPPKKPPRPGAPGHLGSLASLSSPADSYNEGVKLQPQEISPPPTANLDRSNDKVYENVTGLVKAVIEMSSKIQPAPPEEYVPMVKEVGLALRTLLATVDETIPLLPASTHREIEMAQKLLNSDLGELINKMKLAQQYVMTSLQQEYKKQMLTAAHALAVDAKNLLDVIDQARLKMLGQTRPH
Chain of Mitotic checkpoint serine/threonine-protein kinase BUB1 (O43683 whole entry): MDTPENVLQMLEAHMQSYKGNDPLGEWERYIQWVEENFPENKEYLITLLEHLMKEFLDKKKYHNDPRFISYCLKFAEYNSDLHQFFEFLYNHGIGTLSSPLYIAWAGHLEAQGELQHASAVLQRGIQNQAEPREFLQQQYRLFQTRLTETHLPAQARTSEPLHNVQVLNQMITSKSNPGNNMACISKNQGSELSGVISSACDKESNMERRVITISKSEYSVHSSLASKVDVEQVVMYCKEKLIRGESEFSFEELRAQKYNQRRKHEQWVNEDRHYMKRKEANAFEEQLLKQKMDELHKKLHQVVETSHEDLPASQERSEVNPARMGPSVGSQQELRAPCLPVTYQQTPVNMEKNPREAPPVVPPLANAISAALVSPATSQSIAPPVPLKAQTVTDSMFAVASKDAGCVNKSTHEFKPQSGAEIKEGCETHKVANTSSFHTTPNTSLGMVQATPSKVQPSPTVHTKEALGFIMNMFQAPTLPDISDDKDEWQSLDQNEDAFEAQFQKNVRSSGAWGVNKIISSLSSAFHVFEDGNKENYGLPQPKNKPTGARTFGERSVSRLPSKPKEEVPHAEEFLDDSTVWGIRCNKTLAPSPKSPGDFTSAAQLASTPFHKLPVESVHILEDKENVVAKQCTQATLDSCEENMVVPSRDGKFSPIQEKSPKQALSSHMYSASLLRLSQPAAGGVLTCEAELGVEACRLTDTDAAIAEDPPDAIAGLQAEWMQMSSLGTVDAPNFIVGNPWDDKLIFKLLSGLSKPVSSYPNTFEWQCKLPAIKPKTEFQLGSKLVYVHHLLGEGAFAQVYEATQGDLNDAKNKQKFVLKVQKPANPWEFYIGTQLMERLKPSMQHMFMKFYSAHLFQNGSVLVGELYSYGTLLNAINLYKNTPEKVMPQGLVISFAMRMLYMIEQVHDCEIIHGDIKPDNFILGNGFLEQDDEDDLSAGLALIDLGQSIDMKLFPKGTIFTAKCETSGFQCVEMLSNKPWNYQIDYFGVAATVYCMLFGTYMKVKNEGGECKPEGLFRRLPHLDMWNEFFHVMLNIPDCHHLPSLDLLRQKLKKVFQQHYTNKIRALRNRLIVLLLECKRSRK
Chain of Serine/threonine-protein kinase PLK3 (Q9H4B4 whole entry): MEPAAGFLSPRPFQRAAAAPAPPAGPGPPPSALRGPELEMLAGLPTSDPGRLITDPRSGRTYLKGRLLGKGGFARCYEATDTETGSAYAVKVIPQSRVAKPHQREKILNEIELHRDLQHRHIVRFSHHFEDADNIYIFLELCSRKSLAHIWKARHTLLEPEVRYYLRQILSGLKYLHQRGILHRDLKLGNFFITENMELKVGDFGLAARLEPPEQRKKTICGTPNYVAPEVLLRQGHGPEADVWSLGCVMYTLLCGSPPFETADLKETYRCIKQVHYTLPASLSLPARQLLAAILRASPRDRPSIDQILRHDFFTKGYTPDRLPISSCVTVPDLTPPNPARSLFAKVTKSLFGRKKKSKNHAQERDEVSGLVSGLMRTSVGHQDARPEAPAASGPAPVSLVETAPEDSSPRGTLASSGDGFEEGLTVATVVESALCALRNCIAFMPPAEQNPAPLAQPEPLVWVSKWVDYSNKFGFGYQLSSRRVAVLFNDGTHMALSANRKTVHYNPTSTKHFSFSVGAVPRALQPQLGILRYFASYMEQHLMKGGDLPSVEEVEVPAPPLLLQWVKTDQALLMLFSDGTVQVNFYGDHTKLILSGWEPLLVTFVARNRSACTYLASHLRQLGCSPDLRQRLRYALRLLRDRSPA
Chain of Eukaryotic elongation factor 2 kinase (O00418 whole entry): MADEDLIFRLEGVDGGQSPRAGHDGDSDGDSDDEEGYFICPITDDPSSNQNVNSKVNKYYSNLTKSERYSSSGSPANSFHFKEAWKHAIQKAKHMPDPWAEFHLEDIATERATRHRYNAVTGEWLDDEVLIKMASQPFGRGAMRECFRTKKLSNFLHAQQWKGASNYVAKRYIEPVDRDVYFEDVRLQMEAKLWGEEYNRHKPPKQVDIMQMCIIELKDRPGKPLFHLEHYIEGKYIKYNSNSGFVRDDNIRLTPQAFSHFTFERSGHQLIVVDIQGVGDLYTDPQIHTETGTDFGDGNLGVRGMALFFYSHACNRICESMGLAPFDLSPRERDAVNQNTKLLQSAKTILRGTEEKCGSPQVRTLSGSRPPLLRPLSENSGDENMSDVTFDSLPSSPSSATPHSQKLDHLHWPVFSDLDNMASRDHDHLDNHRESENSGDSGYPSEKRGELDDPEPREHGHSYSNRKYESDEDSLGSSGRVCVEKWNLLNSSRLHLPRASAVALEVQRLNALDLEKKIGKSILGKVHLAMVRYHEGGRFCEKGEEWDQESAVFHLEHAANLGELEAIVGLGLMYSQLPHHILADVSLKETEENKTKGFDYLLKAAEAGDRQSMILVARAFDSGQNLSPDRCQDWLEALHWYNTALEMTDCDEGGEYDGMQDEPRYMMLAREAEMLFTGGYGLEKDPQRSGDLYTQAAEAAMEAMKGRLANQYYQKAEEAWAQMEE
Chain of Tyrosine-protein kinase Lyn (P07948 whole entry): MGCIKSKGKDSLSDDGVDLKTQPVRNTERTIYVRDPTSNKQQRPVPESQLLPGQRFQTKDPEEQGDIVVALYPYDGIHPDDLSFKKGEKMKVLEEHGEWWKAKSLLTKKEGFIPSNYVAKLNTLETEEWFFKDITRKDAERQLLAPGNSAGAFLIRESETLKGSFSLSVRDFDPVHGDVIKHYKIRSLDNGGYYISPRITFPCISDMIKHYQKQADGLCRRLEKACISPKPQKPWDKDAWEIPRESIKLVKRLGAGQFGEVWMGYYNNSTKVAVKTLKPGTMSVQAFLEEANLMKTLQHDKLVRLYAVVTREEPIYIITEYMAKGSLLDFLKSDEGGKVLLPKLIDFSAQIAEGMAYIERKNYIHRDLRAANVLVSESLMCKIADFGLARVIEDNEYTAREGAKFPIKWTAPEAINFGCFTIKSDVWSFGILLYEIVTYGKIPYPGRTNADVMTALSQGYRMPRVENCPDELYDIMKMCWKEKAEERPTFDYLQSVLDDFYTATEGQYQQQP
Chain of Maternal embryonic leucine zipper kinase (Q14680 whole entry): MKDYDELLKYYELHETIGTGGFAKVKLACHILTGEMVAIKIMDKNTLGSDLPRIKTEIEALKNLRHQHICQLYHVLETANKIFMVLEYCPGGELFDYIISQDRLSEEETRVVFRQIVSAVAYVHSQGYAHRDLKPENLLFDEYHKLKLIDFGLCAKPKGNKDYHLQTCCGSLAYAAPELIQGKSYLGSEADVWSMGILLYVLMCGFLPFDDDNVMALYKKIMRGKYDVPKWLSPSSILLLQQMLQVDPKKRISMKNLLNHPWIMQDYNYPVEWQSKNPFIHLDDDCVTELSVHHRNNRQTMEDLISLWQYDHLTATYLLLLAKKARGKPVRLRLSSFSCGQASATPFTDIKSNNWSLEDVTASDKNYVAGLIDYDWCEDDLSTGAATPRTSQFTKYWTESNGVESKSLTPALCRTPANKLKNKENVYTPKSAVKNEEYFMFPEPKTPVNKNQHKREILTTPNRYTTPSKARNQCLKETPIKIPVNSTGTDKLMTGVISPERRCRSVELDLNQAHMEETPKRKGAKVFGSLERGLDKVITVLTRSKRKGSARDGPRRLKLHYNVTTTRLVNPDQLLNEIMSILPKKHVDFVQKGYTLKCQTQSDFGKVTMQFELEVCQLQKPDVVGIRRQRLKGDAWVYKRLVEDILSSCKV

- IC50 (MCF7): 1860 nM
- IC50 (NCI-H526): 2200 nM
- bioavailability [3]: 22.6%
- IC50 (HeLa [5]): 6460 nM
- IC50 (SW948): 1960 nM
- IC50 (SK-LU-1): 5000 nM
- IC50 [8]: > 10000 nM
- IC50 (SU-DHL10): 1580 nM
- IC50 [9]: > 10000 nM
- bioavailability [10]: 37.9%
- IC50 [11]: > 10000 nM
- IC50 (Focal adhesion kinase 1): > 10000 nM
- IC50 (HCC 2998): 1810 nM
- IC50 (NCI-H2228): 5810 nM
- IC50 (NCI-H322M): 1560 nM
- IC50 [12]: > 10000 nM
- IC50 [13]: > 10000 nM
- IC50 (NCI-H146): 4280 nM
- IC50 (SW-403): 1570 nM
- Cmax [15]: 4.79 µM
- IC50 [16]: 6020 nM
- AUC at 24 h [17]: 8.66 µM·h
- IC50 [22]: > 10000 nM
- IC50 [23]: 6010 nM
- clearance [24]: 10 mL/min/kg
- IC50 (HCC78): 10000 nM
SMILES: CCc1cccc(CC)c1NC(=O)c1nn(C)c2c1CCc1cnc(Nc3ccc(C(=O)NC4CCN(C)CC4)cc3OC(F)(F)F)nc1-2
- Activity (U2OS [1]): Active
- Activity (HeLa [2]): Active
- IC50 [4]: 9400 nM
- Activity (U2OS [6]): inactive
- Activity (U2OS [7]): Active
- Activity (HCT-116): Active
- IC50 (L-363): 1610 nM
- Activity (A2780): Active
- IC50 (UACC-257): 1870 nM
- Activity (U2OS [14]): Active
- IC50 [18]: 2960 nM
- IC50 [19]: 1320 nM
- IC50 [20]: 2640 nM
- IC50 (TF-1): 6530 nM
- IC50 (SF-539): 807 nM
- Activity (HeLa [21]): Active
